The results in this text go back to patent publication EP0595557A1, “New substituted azetidinones as anti-inflammatory and antidegenerative agents” (MERCK & CO. INC., priority 1992, dated 1994).

In the assay the target is T1, Human Polymorphonuclear Leukocyte Elastase (Homo sapiens, UniProt P08246).
T1 construct: Crude extract of human polymorphonuclear leukocytes (PMN) containing elastase activity; from tissue; host or cells: human polymorphonuclear leukocytes (crude extract)
T1 sequence (P08246 30-267): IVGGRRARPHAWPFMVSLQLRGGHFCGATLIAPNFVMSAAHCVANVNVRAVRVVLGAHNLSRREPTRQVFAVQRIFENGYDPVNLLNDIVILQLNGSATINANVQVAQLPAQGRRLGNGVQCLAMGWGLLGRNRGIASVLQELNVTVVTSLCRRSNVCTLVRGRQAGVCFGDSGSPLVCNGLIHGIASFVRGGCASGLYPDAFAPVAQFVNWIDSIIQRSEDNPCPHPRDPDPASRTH
The experiment in a line: Enzyme assay for inhibition of human polymorphonuclear leukocyte elastase via hydrolysis of Boc-AAPAN or Boc-AAPVN. Type of assay: biochemical. The settings on record: pH 7.5, second order rate constant for inactivation of the enzyme, expressed to the nearest thousand, read-out: Kobs/[I]. Here is the method:
Enzyme Assays for the Inhibition of Human Polymorphonuclear Leukocyte Elastase Via Hydrolysis of N-t-Boc-alanyl-alanyl-prolylalanine-p-nitroanilide (Boc-AAPAN) or N-t-Boc-alanyl-prolylvaline-p-nitro-anilide (Boc-AAPVN) Reagent:
0.05M TES (N-tris[hydroxymethyl]methyl-2-mino-ethanesulfonic acid) Buffer, pH 7.5.
0.2 mM Boc-AAPAN or Boc-AAPVN.
To prepare substrate, the solid was first dissolved in 10.0 ml DMSO. Buffer at pH 7.5 was then added to a final volume of 100 ml.
Crude extract of human polymorphonuclear leukocytes (PMN) containing elastase activity.
Inhibitors (azetidinones) to be tested dissolved in DMSO just before use.
To 1.0 ml of 0.2 mM Boc-AAPAN in a cuvette, 0.01-0.1 ml of DMSO with or without inhibitor was added. After mixing, a measurement was taken at 410 mµ to detect any spontaneous hydrolysis due to presence of test compound. 0.05 Milliliters of PMN extract was then added and the ΔOD/min at 410 mµ was measured and recorded. Beckman model 35 spectrophotometer was used.
Results were expressed to the nearest thousand ^kobs/I which is the second order rate constant in per mole per second for inactivation of the enzyme.
The elastase activity in the crude PMN extract may vary from one preparation to another. A control of each new batch is run, and the volume added in the assay procedure is adjusted according to activity.
As for `CCC[C@@H](NC(=O)N1C(=O)C(CC)(CC)[C@@H]1Oc1ccc(C(=O)N2CCN(CCOC(=O)NC)CC2)cc1)c1ccc(C)cc1` [Compound 255], the kinact/KI was 2.55e+06 M⁻¹ s⁻¹. Next, `CCC[C@@H](NC(=O)N1C(=O)C(CC)(CC)[C@@H]1Oc1ccc(CC(=O)OCCN(C)C)cc1)c1ccc(C)cc1` [Compound 32]: 1.99e+06 M⁻¹ s⁻¹; `CCC[C@@H](NC(=O)N1C(=O)C(CC)(CC)[C@@H]1Oc1ccc(C(=O)N2CCN(C3CC3)CC2)cc1)c1ccc2c(c1)OCO2` [Compound 265, [S-(R*,S*)]-2-[4-[[(4-Cyclopropyl)piperazin-1-yl]carbonyl]phenoxy]-((3,3-diethyl-N-[1-(3,4-methylenedioxyphenyl)butyl]-4-oxo-1-azetidinecarboxamide]: 4.5e+06 M⁻¹ s⁻¹.

Consider `CCC[C@@H](NC(=O)N1C(=O)C(CC)(CC)[C@@H]1Oc1ccc(C(=O)N(CCN2CCCCC2)Cc2ccccc2)cc1)c1ccc(C)cc1` [Compound 133], for which the kinact/KI stood at 1.52e+06 M⁻¹ s⁻¹. Next, `CCC[C@@H](NC(=O)N1C(=O)C(CC)(CC)[C@@H]1Oc1ccc(C(=O)NCCN2CCOCC2)cc1)c1ccc(C)cc1` [Compound 78]: 1.84e+06 M⁻¹ s⁻¹; `CCC[C@@H](NC(=O)N1C(=O)C(CC)(CC)[C@@H]1Oc1ccc(CC(=O)Nc2cccc(Cl)c2)cc1)c1ccc(C)cc1` [Compound 61]: 733000 M⁻¹ s⁻¹. For `CCC[C@@H](NC(=O)N1C(=O)C(CC)(CC)[C@@H]1Oc1ccc(C(=O)N2CCN(CC(=O)O)CC2)cc1)c1ccc(C)cc1` [Compound 251], the kinact/KI came out at 1.95e+06 M⁻¹ s⁻¹. Regarding `CCC[C@@H](NC(=O)N1C(=O)C(CC)(CC)[C@@H]1Oc1ccc(C(=O)OCCCCN(C)C)cc1)c1ccc(C)cc1` [Compound 18, 4-dimethylaminobutyl [S-(R*,S*)]-4-[[3,3-diethyl-1-[[[1-(4-methyl-phenyl)butyl]amino]carbonyl]-4-oxo-2-azetidinyl]oxy]benzoate], the kinact/KI came out at 1.93e+06 M⁻¹ s⁻¹. Next, `CCC[C@@H](NC(=O)N1C(=O)C(CC)(CC)[C@@H]1Oc1ccc(C(=O)N2CCN(C3CC3)CC2)cc1)c1ccc(C)cc1` (relative stereo) [Compound 256, [S(R*,S*)]-2-[4-[[(4-Cyclopropyl)piperazin-1-yl]carbonyl]phenoxy]-((3,3-diethyl-N-[1-(4-methylphenyl)butyl]-4-oxo-1-azetidinecarboxamide]: 3.59e+06 M⁻¹ s⁻¹. As for `CCC[C@@H](NC(=O)N1C(=O)C(CC)(CC)[C@@H]1Oc1cc(C)c(C(=O)OCCN(C)C)c(C)c1)c1ccc(C)cc1` (relative stereo) [Compound 304, 2-(dimethylamino)ethyl [S,(R*,S*)]-4-[[3,3-diethyl-1-[[[1-(4-methylphenyl)butyl]amino]carbonyl]-4-oxo-2-azetidinyl]oxy]-2,6-dimethyl-benzoate], the figure is 563000 M⁻¹ s⁻¹; as for `CCC[C@@H](NC(=O)N1C(=O)C(CC)(CC)[C@@H]1Oc1ccc(C(=O)N(C)CC(C)N(C)C)cc1)c1ccc(C)cc1` (stereo partly drawn) [Compound 219], 1.59e+06 M⁻¹ s⁻¹; as for `CCC[C@@H](NC(=O)N1C(=O)C(CC)(CC)[C@@H]1Oc1ccc(C(=O)N2CCN(CC(C)C)CC2)cc1)c1ccc(C)cc1` [Compound 249], 2.48e+06 M⁻¹ s⁻¹. Next, `CCC[C@@H](NC(=O)N1C(=O)C(CC)(CC)[C@@H]1Oc1ccc(CC(=O)N(CCC)CCC)cc1)c1ccc(C)cc1` [Compound 59]: 1.14e+06 M⁻¹ s⁻¹; `CCC[C@@H](NC(=O)N1C(=O)C(CC)(CC)[C@@H]1Oc1ccc(C(=O)N(C)CCN(C)C)cc1)c1ccc(OC)cc1` [Compound 290]: 1.01e+06 M⁻¹ s⁻¹; `CCCC(NC(=O)N1C(=O)C(CC)(CC)C1Oc1ccc(C(=O)OCC(=O)O)cc1)c1ccc(C)cc1` (stereo not drawn) [Compound 2, Carboxymethyl [S-(R*,S*)]4-((3,3-diethyl-1-(((1-(4-methyl-phenyl)butyl)amino)carbonyl)-4-oxo-2-azetidinyl)oxy)benzoate]: 1.67e+06 M⁻¹ s⁻¹. Regarding `CCC[C@@H](NC(=O)N1C(=O)C(CC)(CC)[C@@H]1Oc1ccc(C(=O)N(C)CCc2c[nH]cn2)cc1)c1ccc(C)cc1` [Compound 104], the kinact/KI was 2.39e+06 M⁻¹ s⁻¹. As for `CCC[C@@H](NC(=O)N1C(=O)C(CC)(CC)[C@@H]1Oc1ccc(C(=O)N(C)CCN(C)Cc2cccnc2)cc1)c1ccc(C)cc1` [Compound 145], the figure is 2.88e+06 M⁻¹ s⁻¹. Regarding `CCC[C@@H](NC(=O)N1C(=O)C(CC)(CC)[C@@H]1Oc1ccc(C(=O)N2CCCNCC2)cc1)c1ccc(C)cc1` [Compound 152], the kinact/KI was 1.95e+06 M⁻¹ s⁻¹. `CCC[C@@H](NC(=O)N1C(=O)C(CC)(CC)[C@@H]1Oc1ccc(C(=O)OCCN(C)C)cc1)c1ccc(C(=O)N2CCOCC2)cc1` [Compound 278]: the kinact/KI was determined as 135000 M⁻¹ s⁻¹. `CCC[C@@H](NC(=O)N1C(=O)C(CC)(CC)[C@@H]1Oc1ccc(C(=O)N(C)CCN(C)C(=O)NC)cc1)c1ccc(C)cc1` [Compound 106]: the kinact/KI was 2.49e+06 M⁻¹ s⁻¹.

Turning to `CCC[C@@H](NC(=O)N1C(=O)C(CC)(CC)[C@@H]1Oc1ccc(CC(=O)N(C)c2ccc(C(=O)NS(=O)(=O)c3ccccc3)cc2)cc1)c1ccc(C)cc1` [Compound 72], the kinact/KI stood at 3.28e+06 M⁻¹ s⁻¹.

Take `CCC[C@@H](NC(=O)N1C(=O)C(CC)(CC)[C@@H]1Oc1ccc(CC(=O)NCCN(C)C)cc1)c1ccc(C)cc1` [Compound 43]: the kinact/KI was found to be 1.21e+06 M⁻¹ s⁻¹. For `CCC[C@@H](NC(=O)N1C(=O)C(CC)(CC)[C@@H]1Oc1ccc(CC(=O)NCC(=O)N(CCO)CCO)cc1)c1ccc(C)cc1` [Compound 49], the kinact/KI was 1.3e+06 M⁻¹ s⁻¹. Regarding `CCC[C@@H](NC(=O)N1C(=O)C(CC)(CC)[C@@H]1Oc1ccc(C(=O)N(C)CCN2CC(C)OC(C)C2)cc1)c1ccc(C)cc1` (stereo partly drawn) [Compound 196], the kinact/KI is 1.53e+06 M⁻¹ s⁻¹.

Regarding `CCC[C@@H](NC(=O)N1C(=O)C(CC)(CC)[C@@H]1Oc1ccc(C(=O)NCCN2CC3CCC(CC3)C2)cc1)c1ccc(C)cc1` [Compound 98], the kinact/KI stood at 3.04e+06 M⁻¹ s⁻¹. As to `CCC[C@@H](NC(=O)N1C(=O)C(CC)(CC)[C@@H]1Oc1ccc(C(=O)OCC(=O)N2CCC[C@H]2C(=O)NCc2ccccc2)cc1)c1ccc(C)cc1` [Compound 19, [S-(R*,S*)] 1-(((4-((3,3-diethyl-1-(((1-(4-methylphenyl)butyl)amino)carbonyl-4-oxo-2-azetidinyl)oxy)benzoyl)oxy)acetyl-N-benzyl-L-prolinamide], the kinact/KI came to 4.96e+06 M⁻¹ s⁻¹. As for `CCC[C@@H](NC(=O)N1C(=O)C(CC)(CC)[C@@H]1Oc1ccc(C(=O)N(C)CCN(C)Cc2ccccc2)cc1)c1ccc(OCC)cc1` [Compound 296], the figure is 776000 M⁻¹ s⁻¹; as for `CCC[C@@H](NC(=O)N1C(=O)C(CC)(CC)[C@@H]1Oc1ccc(CC(=O)OCCN(C)Cc2ccccc2)cc1)c1ccc(C)cc1` [Compound 39], 751000 M⁻¹ s⁻¹. Next, `CCC[C@@H](NC(=O)N1C(=O)C(CC)(CC)[C@@H]1Oc1ccc(C(=O)N(C)CCN2CCCC(O)C2)cc1)c1ccc(C)cc1` (stereo partly drawn) [Compound 124]: 1.96e+06 M⁻¹ s⁻¹; `CCC[C@@H](NC(=O)N1C(=O)C(CC)(CC)[C@@H]1Oc1ccc(C(=O)N(CCN(C)Cc2ccccc2)Cc2ccccn2)cc1)c1ccc(C)cc1` [Compound 194]: 2.47e+06 M⁻¹ s⁻¹.

For `CCC[C@@H](NC(=O)N1C(=O)C(CC)(CC)[C@@H]1Oc1ccc(C(=O)N2CCN(c3ccccc3)CC2)cc1)c1ccc(C)cc1` [Compound 245], the kinact/KI came out at 5.28e+06 M⁻¹ s⁻¹. For the compound `CCC[C@@H](NC(=O)N1C(=O)C(CC)(CC)[C@@H]1Oc1ccc(C(=O)N(C)CCN(C)Cc2ccc(C#N)cc2)cc1)c1ccc(C)cc1` [Compound 177], the kinact/KI was 2.2e+06 M⁻¹ s⁻¹. As for `CCC[C@@H](NC(=O)N1C(=O)C(CC)(CC)[C@@H]1Oc1ccc(CC(=O)N(C)CCN(C)Cc2ccccc2)cc1)c1ccc(C)cc1` [Compound 69], the figure is 2.79e+06 M⁻¹ s⁻¹. For the compound `CCC[C@@H](NC(=O)N1C(=O)C(CC)(CC)[C@@H]1Oc1ccc(C(=O)OCCN(CC)CC)cc1)c1ccc(C)cc1` [Compound 16, 2-Diethylaminoethyl [S-(R*,S*)]-4-[[3,3-diethyl-1-[[[1-(4-methyl-phenyl)butyl]amino]carbonyl]-4-oxo-2-azetidinyl]oxy]benzoate], the kinact/KI turned out to be 2.29e+06 M⁻¹ s⁻¹. Next, `CCC[C@@H](NC(=O)N1C(=O)C(CC)(CC)[C@@H]1Oc1ccc(C(=O)N(C)CCCC(=O)NS(=O)(=O)c2ccccc2)cc1)c1ccc(C)cc1` [Compound 165]: 1.55e+06 M⁻¹ s⁻¹; `CCC[C@@H](NC(=O)N1C(=O)C(CC)(CC)[C@@H]1Oc1ccc(CC(=O)N(CC)CC)cc1)c1cccc(C(=O)N2CCOCC2)c1` [Compound 267]: 334000 M⁻¹ s⁻¹.

Turning to `CCC[C@@H](NC(=O)N1C(=O)C(CC)(CC)[C@@H]1Oc1ccc(C(=O)N(C)CCc2ccccn2)cc1)c1ccc(C)cc1` [Compound 115], the kinact/KI is 2.27e+06 M⁻¹ s⁻¹.

Regarding `CCC[C@@H](NC(=O)N1C(=O)C(CC)(CC)[C@@H]1Oc1ccc(C(=O)N(C)CCN2CCCC2)cc1)c1ccc(C)cc1` [Compound 95], the kinact/KI came out at 1e+06 M⁻¹ s⁻¹. As for `CCC[C@@H](NC(=O)N1C(=O)C(CC)(CC)[C@@H]1Oc1ccc(C(=O)N(CC)CC)cc1)c1ccc(C)cc1` [Compound 128], the figure is 1.45e+06 M⁻¹ s⁻¹.
